According to patent US9242944B2 (UNIVERSITY OF MARYLAND, BALTIMORE, priority 2013, dated 2016):
“Also recorded” adds a separate entry of the source. Read-outs that look alike come from different tables or passages of the source.

Assays:
HL60 cells [1] = experiment: Cell cycle analysis (propidium iodide, flow cytometry); assay type: cell-based; settings: 24 h
Protocol: Sub-confluent cultures of cells at >90% viability were plated into fresh medium at densities that were typically about 10% of those attained at the point of density arrest. The next day, Myc inhibitors at the stated concentrations were added for 24-48 hr. The cells were then harvested, washed twice in PBS and stained with propidium iodide as previously described(23). Cell cycle analyses were performed on a BD FACSCalibur™ flow cytometer (Becton Dickinson, Inc. Franklin Lakes, N.J.) and analyzed using ModFit LT 3.3 (Verity Software House, Topsham, Me.).

Max-Max homodimers = target: T1, Max-Max homodimers (Homo sapiens, UniProt P61244); experiment: EMSA of Max-Max homodimerization and DNA binding; settings: 50% inhibition of Max-Max dimerization and DNA binding in EMSAs
T1 construct: His6; made in house; host or cells: bacteria
T1 sequence (P61244 whole entry): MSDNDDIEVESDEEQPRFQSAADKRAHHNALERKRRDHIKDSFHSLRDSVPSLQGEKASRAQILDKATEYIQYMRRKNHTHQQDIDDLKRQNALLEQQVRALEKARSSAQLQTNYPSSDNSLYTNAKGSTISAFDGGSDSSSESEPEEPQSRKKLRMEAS

[2] = system: c-Myc-responsive promoter; experiment: Myc reporter gene expression (luciferase) in HeLa cells; assay type: cell-based; settings: markedly diminished within 6 h of compound addition
Description: The generic reporter vector pGL4.28(luc2CP/minP/Hygro) (Promega Corp., Madison Wis.), which is specifically designed to reduce anomalous transcription and which contains a highly de-stabilized luciferase reporter was used to assess the effects of Myc inhibitors. […] A control vector containing this same oligonucleotide with mutant E-box sites ([NT] ID NO: 3) was used as a negative control. […] After automated DNA sequencing to confirm the identity of its respective insert, each vector was then separately co-transfected into HeLa cells together with the vector pFR400, which encodes a mutant form of dihydrofolate reductase that facilitates the step-wise amplification of the plasmid and any co-transfected sequences in the presence of increasing concentrations of the folate antagonist methotrexate (MTX). After first selecting for stably transfected cells by growth in hygromycin, the resistant clones were pooled and grown in serial four-fold increasing concentrations of MTX ranging from […]), thus allowing the luciferase signal originating from the first vector to be easily detected above background. No luciferase signal over background values could be obtained in unamplified cells or in amplified cells transfected with the mutant E-box-containing vector. […]

HL60 cells [3] = experiment: Growth inhibition (MTT assay) in HL60 cells; assay type: cell-based, human; settings: 10-point serial dilution, quadruplicate; for IC50: read-out: IC50 HL60
Protocol: (§1) These were performed using HL60 human promyelocytic leukemia cells or Daudi Burkitt lymphoma cells essentially as described previously (23). Briefly, cells were seeded into 96 well dishes (5000 cells/well and 10,000 cells/well for HL60 and Daudi cells, respectively). Growth medium consisted of RPMI medium supplemented with Penicillin/Streptomycin, glutamine and 10% fetal bovine serum. The indicated concentrations of each compound were then added and 10-point growth inhibition assays were performed 3-5 days later using the MTT assay. Each point was performed in quadruplicate.
(§2) Daudi Burkitt lymphoma and HL60 promyelocytic leukemia cells were maintained in RPMI medium supplemented with 10% fetal bovine serum.(23) For growth inhibition studies, 3×10^3 cells were seeded in 96 well plates in the presence of serial dilutions of each compound. A total of 10 dilutions, ranging from 0.1 to 50 μM were performed for each compound. Standard MTT assays (23) were used to quantify cell number 3-4 days later and compared to wells exposed to DMSO vehicle only.

c-Myc-Max heterodimers = target: T2, c-Myc-Max heterodimers (Homo sapiens, UniProt P01106); experiment: Electrophoretic mobility shift assay (EMSA) of c-Myc-Max dimerization and DNA binding
T2 construct: c-Myc bHLH-ZIP domain (residues 353-437); His6-TEV protease substrate tag; made in house; host or cells: bacteria (pET151 vector for Myc)
T2 sequence (P01106 368-452, one chain of several): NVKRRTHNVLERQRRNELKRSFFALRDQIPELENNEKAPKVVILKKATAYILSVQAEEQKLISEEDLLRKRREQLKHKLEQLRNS
Protocol: The ability of a small-molecule to interfere with c-Myc-Max dimerization is conveniently assessed through the disruption of the c-Myc-Max/DNA ternary complex by an electrophoretic mobility shift assay (EMSA) using fluorescently-labelled DNA, and subsequently quantified by densitometry.(23) Accordingly, a 100-member library was screened for the ability to disrupt the c-Myc-Max dimer.
These were performed essentially as described previously (23). Briefly, Ni^+-agarose-purified His6-tagged c-Myc bHLH-ZIP domain (residues 353-437) was used for all binding assays as was the His6-tagged 151 residue isoform of Max, otherwise referred to as Max(S) (residues 2-151) (21). For each binding reaction, the proteins were allowed to heterodimerize at a concentration of 30 nM each in the presence of 20 nM of a 5′-HEX-tagged double-stranded 22-base pair oligonucleotide 5′-hexachlorofluoresceine-[…]-3′ (SEQ ID NO: 1) containing a consensus c-Myc binding site (CACGTG) and the indicated concentration of small molecule inhibitor. Control reactions contained the same oligonucleotide in the presence of 60 nM of the 160 residue isoform of Max referred to as Max(L) (21). All binding reactions were prepared in a buffer consisting of PBS (pH 7.3), 1 mmol/L EDTA, 0.1% NP40, 5% glycerol, 1 mmol/L DTT, and 0.4 mg/mL bovine serum albumin. Electrophoresis was performed on 8% polyacrylamide/bisacrylamide (80:1) gels in […] (23). Each reaction was run on at least three separate occasions.
EMSAs were performed essentially as described utilizing bacterially-expressed recombinant proteins purified nearly to homogeneity.(23) Experiments with Max homodimers used the His6-tagged 160 amino acid isoform of the protein, termed Max(L), which homodimerizes and binds DNA well. For studies with Myc-Max heterodimers, the His6-tagged 151 residue isoform of Max [Max(S)] was used, which binds DNA well as a heterodimer with Myc but poorly as a homodimer.(23) Recombinant Myc protein, expressed in the pET151 vector, consisted of the His6-TEV protease substrate-tagged 85 amino acid bHLH-ZIP domain. (23) Each protein was purified by Ni-agarose affinity chromatography as previously described. (23) The His6-TEV tag was removed from the Myc protein by TEV protease cleavage followed by re-purification using Ni-agarose affinity chromatography to remove the His6-TEV protease and the cleaved His6-TEV tag as previously described. Binding assays were performed with 30 nM of each protein and 30 nM of a 6-carboxy-2′,4,4′,5′,7,7′-hexachlorofluorescein (HEX)-tagged double-stranded oligonucleotide containing a consensus Myc binding site (IDT, Coralville, Iowa).(23)

c-Myc-Max dimerization = target: T3, c-Myc-Max dimerization (Homo sapiens, UniProt P01106); experiment: Co-immunoprecipitation (Co-IP) of c-Myc with Max in HL60 cells; assay type: cell-based
T3 construct: endogenous in cells; host or cells: HL60
T3 sequence (P01106 16-454 limits assumed): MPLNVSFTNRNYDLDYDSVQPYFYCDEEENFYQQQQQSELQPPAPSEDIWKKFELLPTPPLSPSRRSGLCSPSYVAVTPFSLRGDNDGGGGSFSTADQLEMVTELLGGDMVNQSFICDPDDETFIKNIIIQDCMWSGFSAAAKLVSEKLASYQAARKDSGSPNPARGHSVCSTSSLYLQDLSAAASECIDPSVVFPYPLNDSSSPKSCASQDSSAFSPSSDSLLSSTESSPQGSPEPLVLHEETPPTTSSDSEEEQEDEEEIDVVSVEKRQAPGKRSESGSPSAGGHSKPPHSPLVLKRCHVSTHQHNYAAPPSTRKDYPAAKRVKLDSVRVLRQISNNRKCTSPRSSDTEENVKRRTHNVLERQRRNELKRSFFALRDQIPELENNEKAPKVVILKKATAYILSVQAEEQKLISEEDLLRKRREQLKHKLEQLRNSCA
Protocol: Co-IP assays were performed essentially as described previously.(23) Briefly, 5×10^6 HL60 cells (>90% viable) in log-phase growth were treated in suspension for 4-6 h with the stated concentration of 3jc48-3. As a negative control, samples exposed to DMSO vehicle only were included and processed in parallel. Treated cells were collected by centrifugation, washed twice in ice-cold PBS and lysed in IP Buffer. 300 μg of cleared lysate was then precipitated with a 1:200 dilution of anti-Max antibody(23) followed by subsequent precipitation with protein G-Sepharose using conditions recommended by the supplier (Santa Cruz Biotechnology, Inc. Santa Cruz, Calif.). The precipitate was washed three times in IP buffer, boiled in running buffer and resolved by 10% SDS-PAGE. After electrotransfer of the proteins to a PVDF membrane (Millipore Corp. Billercica, Mass.), the blot was probed with a 1:1000 dilution of anti-Myc monoclonal antibody (9E10, Santa Cruz Biotechnology, Santa Cruz, Calif.). Blots were developed using a Pierce ECL Plus enhanced chemiluminescence kit according to the directions of the supplier (Thermo-Fisher, Pittsburgh, Pa.).

Daudi cells = experiment: Growth inhibition (MTT assay) in Daudi cells; assay type: cell-based; settings: 10-point serial dilution, quadruplicate; for IC50: read-out: IC50 Daudi
Protocol: as §1, §2

Compound: COC(=O)c1ccc(Nc2ccc([N+](=O)[O-])c3nonc23)c(-c2ccc(C)cc2)c1 [Compound 3jc48-3, Methyl 4′-methyl-6-((7-nitrobenzo[c][1,2,5]oxadiazol-4-yl)amino)-[1,1′-biphenyl]-3-carboxylate]
- cell cycle arrest, cells in G0/G1 (HL60 cells [1]): blocking progression of the cell cycle beyond the G0/G1 phase; also recorded: dose-dependently increased the percentage of HL60 cells in the G0/G1 stage
- IC50 (Max-Max homodimers): 60.6 µM
- inhibition of luciferase reporter under c-Myc-responsive vs NF-κB-responsive promoter [2]: selectively inhibits the expression of the luciferase gene under the control of a c-Myc promoter; also recorded: selectively inhibited the c-Myc-driven gene
- IC50 (HL60 cells [3]; Homo sapiens, HL-60, MTT assay): 3.8 µM
- IC50 HL60 (HL60 cells [3]; MTT assay): single-digit micromolar
- IC50 (HL60 cells [3]; MTT assay): 3.5 ± 0.54 µM
- IC50 (c-Myc-Max heterodimers; 50% inhibition of c-Myc-Max dimerization and DNA binding in EMSAs): 34.8 µM
- c-Myc-Max inhibitory potency relative to 10074-G5 (c-Myc-Max heterodimers; EMSA): approximately five-fold improvement
- selectivity for Myc-Max heterodimers over Max-Max homodimers (c-Myc-Max heterodimers; EMSA): about two-fold selective; also recorded: two-fold selectivity
- inhibition at 100 µM (c-Myc-Max heterodimers; Table 10, 100 μM small-molecule, EMSA, read-out: % Inhibition of c-Myc-Max Dimerization): 94%
- disruption of c-Myc-Max dimerization in cells (co-IP) (c-Myc-Max dimerization): capable of disrupting c-Myc-Max dimerization within cells
- IC50 Daudi (Daudi cells): single-digit micromolar
- IC50 (Daudi cells): 1.28 ± 0.73 µM
- IC50 (Daudi cells; Homo sapiens, Daudi): 1.3 µM
